The target of the assay is PDE1B (Homo sapiens, UniProt Q01064). Kind of assay: In vitro HTRF PDE1 inhibition assay (PDE1B). It counts as biochemical. Conditions: in vitro PDE1B HTRF Assay; read-out: IC50.

pIC50: −log10 of the molar value.

PDE1B, sequence (Q01064 whole entry): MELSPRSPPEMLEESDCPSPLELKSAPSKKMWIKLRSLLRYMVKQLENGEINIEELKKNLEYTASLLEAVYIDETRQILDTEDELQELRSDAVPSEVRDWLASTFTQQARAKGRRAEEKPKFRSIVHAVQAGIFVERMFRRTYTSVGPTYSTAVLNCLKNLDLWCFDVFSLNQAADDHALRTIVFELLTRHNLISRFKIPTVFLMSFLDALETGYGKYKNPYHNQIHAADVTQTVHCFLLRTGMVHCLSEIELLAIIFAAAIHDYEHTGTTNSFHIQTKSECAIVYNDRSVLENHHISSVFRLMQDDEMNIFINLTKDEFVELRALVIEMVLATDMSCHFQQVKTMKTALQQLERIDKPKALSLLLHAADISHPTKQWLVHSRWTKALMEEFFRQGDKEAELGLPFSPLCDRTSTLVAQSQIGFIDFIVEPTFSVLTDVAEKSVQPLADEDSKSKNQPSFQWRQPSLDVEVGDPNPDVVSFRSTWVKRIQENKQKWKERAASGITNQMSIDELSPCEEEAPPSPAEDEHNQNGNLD
Description: The HTRF PDE1 assay utilized the HTRF (Homogenous Time Resolved Fluorescence) technology, which is based on the competition between unlabeled cyclic nucleotide and cyclic nucleotide labeled with XL665 for the binding to cyclic nucleotide-specific antibody labeled with cryptate. The HTRF signal is thus inversely proportional to the concentration of cyclic nucleotide being measured. Since phosphodiesterases break down cyclic nucleotides, the HTRF signal was used to determine PDE activity.
The Cisbio cGMP HTRF assay kit (Cat no: 62GM2PEC) was utilized. Cyclic GMP was diluted to 200 nM in HTRF assay buffer (1 mM CaCl2, 10 mM MgCl2, 10 mM Tris-HCl, 0.1% BSA, pH 7.4). […] PDE (1A3, 1B or 1C) was diluted to 2× working concentration in HTRF assay buffer with 2 μg/ml Calmodulin, and 10 μl was added to initiate the reaction. The plate was then incubated for 45 minutes at 27° C. d2-Labelled cyclic GMP and anti-cGMP cryptate were diluted in 50 mM phosphate buffer, 0.8 M KF, 1% Triton X100, 0.2% BSA, pH 7.0. Following incubation 10 μl d2-cGMP, then 10 μl anti cGMP cryptate were added to each well and the plate was incubated for 60 minutes at room temperature. The plate was then read on Perkin Elmer EnVision at 2 different FRET readings ex/em 340 nm/665 nm and 340 nm/615 nm.

In general, pIC50 refers to the IC50 on a negative log10 scale, so that one unit is a factor of ten. With `COC(C)c1ncc2c(=O)n(C)c(OCC3CCC(F)(F)CC3)nn12` (centres unmarked) [Example 112], the pIC50 was over 6.00. As to `COc1nn2c(C(C)OC)ncc2c(=O)n1CC1CCC(F)(F)CC1` (centres unmarked) [Example 114], the pIC50 is over 6.00. In the case of `Cn1c(OCc2ccc(F)cc2)nn2c(C3CCOCC3)nc(Cl)c2c1=O` [Example 117, 5-Chloro-2-[(4-fluorobenzyl)oxy]-3-methyl-7-(tetrahydro-2H-pyran-4-yl)imidazo[5,1-f][1,2,4]triazin-4(3H)-one], the pIC50 was over 6.00. For `CCn1c(OCCCc2ccccn2)nn2c(C3CCOCC3)nc(Cl)c2c1=O` [Example 118], the pIC50 is over 6.00. With `CCn1c(OCC2CCC(F)(F)CC2)nn2c(C3CCOCC3)nc(Cl)c2c1=O` [Example 119, 5-chloro-2-[(4,4-difluorocyclohexyl)methoxy]-3-ethyl-7-(tetrahydro-2H-pyran-4-yl)-imidazo[5,1-f][1,2,4]triazin-4(3H)-one], the pIC50 is over 6.00. Regarding `CCn1c(OCC2CCC(F)(F)CC2)nn2c(C3CCOCC3)nc(C)c2c1=O` [Example 121], the pIC50 is over 6.00. `COc1nn2c(C3CCOCC3)nc(C)c2c(=O)n1CC1CCC(F)(F)CC1` [Example 122]: the pIC50 was over 6.00.

In the case of `CCn1c(OCC2CCC(F)(F)CC2)nn2c(C3CCOCC3)ncc2c1=S` [Example 123, 2-[(4,4-Difluorocyclohexyl)methoxy]-3-ethyl-7-(tetrahydro-2H-pyran-4-yl)imidazo[5,1-f][1,2,4]triazin-4(3H)-thione], the pIC50 is over 6.00.

On to `O=c1[nH]c(N2CCC[C@@H]2c2ccccc2)nn2c(C3CCOCC3)ncc12` [Example 124, 2-[(2R)-2-phenylpyrrolidin-1-yl]-7-(tetrahydro-2H-pyran-4-yl)imidazo[5,1-f][1,2,4]triazin-4(3H)-one], for which the pIC50 was over 6.00. As for `CC(C)c1ncc2c(=O)[nH]c(N3CCC[C@@H]3c3ccc(Cl)cc3)nn12` [Example 125, 2-[(2R)-2-(4-chlorophenyl)pyrrolidin-1-yl]-7-(propan-2-yl)imidazo[5,1-f][1,2,4]triazin-4(3H)-one], the pIC50 was over 6.00.

As to `O=c1[nH]c(N2CCC[C@H]2c2ccccc2)nn2c(C3CCOCC3)ncc12` [Example 126], the pIC50 was over 6.00. As to `O=c1[nH]c(N2CCCC2c2ccccc2Cl)nn2c(C3CCOCC3)ncc12` (centres unmarked) [Example 127], the pIC50 was over 6.00. On to `O=c1[nH]c(N2CCCC2c2cccc(Cl)c2)nn2c(C3CCOCC3)ncc12` (centres unmarked) [Example 128], for which the pIC50 is over 6.00. Consider `O=c1[nH]c(N2CCCC2c2ccc(Cl)cc2)nn2c(C3CCOCC3)ncc12` (centres unmarked) [Example 129], for which the pIC50 is over 6.00. The result for `CC(C)c1ncc2c(=O)[nH]c(N3CCC[C@@H]3c3ccccc3)nn12` [Example 130] reads over 6.00; that for `CC(C)c1ncc2c(=O)[nH]c(N3CCC[C@H]3c3ccccc3)nn12` [Example 131], 5.00 to 6.00; that for `CC(C)c1ncc2c(=O)[nH]c(N3CCCC3c3ccccc3Cl)nn12` (centres unmarked) [Example 132], over 6.00. On to `CC(C)c1ncc2c(=O)[nH]c(N3CCCC3c3cccc(Cl)c3)nn12` (centres unmarked) [Example 133], for which the pIC50 is over 6.00. As for `CC(C)c1ncc2c(=O)[nH]c(N3CCCC3c3ccc(Cl)cc3)nn12` (centres unmarked) [Example 134], the pIC50 was over 6.00.

On to `COc1ccc(CNc2nn3c(C(C)C)ncc3c(=O)n2C)nc1` [Example 135, 2-{[(5-Methoxypyridin-2-yl)methyl]amino}-3-methyl-7-(propan-2-yl)imidazo[5,1-f][1,2,4]triazin-4(3H)-one], for which the pIC50 was over 6.00. For `Cc1ccc(CNc2nn3c(C4CCOCC4)ncc3c(=O)n2C)c(F)c1` [Example 136, 2-[(2-Fluoro-4-methylbenzyl)amino]-3-methyl-7-(tetrahydro-2H-pyran-4-yl)imidazo[5,1-f][1,2,4]triazin-4(3H)-one], the pIC50 is over 6.00.

Take `Cc1cccc(CNc2nn3c(C(C)C)ncc3c(=O)n2C)n1` [Example 137, 3-Methyl-2-{[(6-methylpyridin-2-yl)methyl]amino}-7-(propan-2-yl)imidazo[5,1-f][1,2,4]triazin-4(3H)-one]: the pIC50 was over 6.00. The result for `CC(C)c1ncc2c(=O)n(C)c(NC3CCCc4ccccc43)nn12` (centres unmarked) [Example 138, 3-Methyl-7-(propan-2-yl)-2-(1,2,3,4-tetrahydronaphthalen-1-ylamino)imidazo[5,1-f][1,2,4]triazin-4(3H)-one] reads over 6.00; that for `CC(C)c1ncc2c(=O)n(C)c(NCc3ccccc3)nn12` [Example 139], over 6.00. The result for `COc1ccc(CNc2nn3c(C(C)C)ncc3c(=O)n2C)cc1` [Example 140] reads over 6.00; that for `CC(C)c1ncc2c(=O)n(C)c(NCc3ccc(Cl)cc3)nn12` [Example 141], over 6.00.

For `CC(C)c1ncc2c(=O)n(C)c(NCc3ccc(C#N)cc3)nn12` [Example 142], the pIC50 was over 6.00. Turning to `CC(C)c1ncc2c(=O)n(C)c(NC3CCc4ccccc43)nn12` (centres unmarked) [Example 143], the pIC50 was over 6.00. For `CC(C)c1ncc2c(=O)n(C)c(N[C@@H]3CCCc4ccccc43)nn12` [Example 144], the pIC50 was over 6.00. For `CC(C)c1ncc2c(=O)n(C)c(N[C@H]3CCCc4ccccc43)nn12` [Example 145], the pIC50 is over 6.00.

In the case of `CC(C)c1ncc2c(=O)n(C)c(NCc3ccc(Cl)cc3F)nn12` [Example 146], the pIC50 was over 6.00.

On to `CC(C)c1ncc2c(=O)n(C)c(NC3CCCc4cc(Cl)ccc43)nn12` (centres unmarked) [Example 147], for which the pIC50 was over 6.00. With `CC(C)c1ncc2c(=O)n(C)c(NC3CCCc4cc(C#N)ccc43)nn12` (centres unmarked) [Example 148], the pIC50 is over 6.00. In the case of `CC(C)c1ncc2c(=O)n(C)c(NCc3ccccn3)nn12` [Example 150], the pIC50 was over 6.00. The result for `CC(C)c1ncc2c(=O)n(C)c(NCCc3ccccn3)nn12` [Example 151] reads over 6.00; that for `CC(C)c1ncc2c(=O)n(C)c(NCc3cccnc3)nn12` [Example 152], over 6.00. `Cc1ccc(CNc2nn3c(C(C)C)ncc3c(=O)n2C)nc1` [Example 153]: the pIC50 is over 6.00. The result for `CC(C)c1ncc2c(=O)n(C)c(NCc3ccc(F)cn3)nn12` [Example 154] reads 5.00 to 6.00. As to `Cc1ccc(CNc2nn3c(C(C)C)ncc3c(=O)n2C)cn1` [Example 155], the pIC50 is over 6.00. In the case of `Cc1ccnc(CNc2nn3c(C(C)C)ncc3c(=O)n2C)c1` [Example 156], the negative logarithm of the IC50 (pIC50) was over 6.00. In the case of `Cc1cccnc1CNc1nn2c(C(C)C)ncc2c(=O)n1C` [Example 157], the pIC50 was over 6.00. For the molecule `CC(C)c1ncc2c(=O)n(C)c(NCc3ccc(C#N)cn3)nn12` [Example 158], the pIC50 is over 6.00.

Regarding `CCc1ccc(CNc2nn3c(C(C)C)ncc3c(=O)n2C)nc1` [Example 159], the pIC50 was over 6.00. For the molecule `CC(C)c1ncc2c(=O)n(C)c(NCc3ncccc3F)nn12` [Example 160], the pIC50 was over 6.00.

Consider `CC(C)c1ncc2c(=O)n(C)c(NC3(c4ccccn4)CC3)nn12` [Example 161], for which the pIC50 is over 6.00. As to `CC(C)c1ncc2c(=O)n(C)c(NC(C)(C)c3ccccn3)nn12` [Example 162], the pIC50 is 5.00 to 6.00.

As for `CC(C)c1ncc2c(=O)n(C)c(N(C)Cc3ccccn3)nn12` [Example 163], the pIC50 is 5.00 to 6.00. The result for `CC(C)c1ncc2c(=O)n(C)c(N3CCC[C@@H]3c3ccc(Cl)cc3)nn12` [Example 164] reads over 6.00; that for `Cc1ccc([C@H]2CCCN2c2nn3c(C(C)C)ncc3c(=O)n2C)cc1` [Example 165], over 6.00; that for `CC(C)c1ccc([C@H]2CCCN2c2nn3c(C(C)C)ncc3c(=O)n2C)cc1` [Example 166], over 6.00. For the molecule `CC(C)c1ncc2c(=O)n(C)c(N3CCC[C@@H]3c3ccc(C#N)cc3)nn12` [Example 167], the pIC50 is 5.00 to 6.00.

As for `CCc1ccc([C@H]2CCCN2c2nn3c(C(C)C)ncc3c(=O)n2C)cc1` [Example 168], the pIC50 was over 6.00. `CCn1c(NCc2ccccn2)nn2c(C(C)C)ncc2c1=O` [Example 169]: the pIC50 is over 6.00. On to `CCn1c(NCc2ccc(C)cn2)nn2c(C(C)C)ncc2c1=O` [Example 170], for which the negative-log IC50 (pIC50) is over 6.00.

Regarding `CCn1c(NCc2ccc(F)cn2)nn2c(C(C)C)ncc2c1=O` [Example 171], the pIC50 is over 6.00. The result for `CCn1c(NCc2ccc(OC)cn2)nn2c(C(C)C)ncc2c1=O` [Example 172] reads over 6.00. In the case of `CCn1c(NCc2ncccc2C)nn2c(C(C)C)ncc2c1=O` [Example 173], the pIC50 was 5.00 to 6.00. As for `CCn1c(NCc2ncccc2F)nn2c(C(C)C)ncc2c1=O` [Example 174], the pIC50 is over 6.00.

As for `CCn1c(NCc2ccc(C#N)cn2)nn2c(C(C)C)ncc2c1=O` [Example 175], the pIC50 was over 6.00. Turning to `CCn1c(NCc2ccc(C)nc2)nn2c(C(C)C)ncc2c1=O` [Example 176], the negative logarithm of the IC50 (pIC50) was over 6.00.

For the molecule `CCn1c(NCCc2ccccn2)nn2c(C(C)C)ncc2c1=O` [Example 177], the pIC50 was over 6.00.

On to `CCn1c(N2CCC[C@@H]2c2ccc(Cl)cc2)nn2c(C(C)C)ncc2c1=O` [Example 178], for which the pIC50 was over 6.00. On to `CCCn1c(N2CCC[C@@H]2c2ccc(Cl)cc2)nn2c(C(C)C)ncc2c1=O` [Example 179], for which the pIC50 was over 6.00. The result for `Cn1c(NCc2ccc(Cl)cc2)nn2c(C3CCOCC3)ncc2c1=O` [Example 180] reads over 6.00; that for `Cn1c(NCc2ccccn2)nn2c(C3CCOCC3)ncc2c1=O` [Example 181], over 6.00; that for `Cn1c(NCCc2ccccn2)nn2c(C3CCOCC3)ncc2c1=O` [Example 182], over 6.00. Consider `Cn1c(N2CCCC2)nn2c(C3CCOCC3)ncc2c1=O` [Example 183], for which the pIC50 was over 6.00. In the case of `Cn1c(N2CCCCC2)nn2c(C3CCOCC3)ncc2c1=O` [Example 184], the pIC50 was over 6.00. As for `Cn1c(N2CCOCC2)nn2c(C3CCOCC3)ncc2c1=O` [Example 185], the pIC50 is over 6.00.

Turning to `COCCN1CCN(c2nn3c(C4CCOCC4)ncc3c(=O)n2C)CC1` [Example 186], the pIC50 was over 6.00. On to `CO[C@H]1CCN(c2nn3c(C4CCOCC4)ncc3c(=O)n2C)C1` [Example 187], for which the pIC50 was over 6.00.

(Values after US20180044343A1, “BICYCLIC IMIDAZOLO DERIVATIVE” (Sumitomo Dainippon Pharma Co., Ltd., priority 2015, published 2018).)
